Data published in publication PMC11758220, “Identification of a Privileged Scaffold for Inhibition of Sterol Transport Proteins through the Synthesis and Ring Distortion of Diverse, Pseudo-Natural Products” (ACS Central Science, 2025).

How the values were obtained:
ORP1 = molecular target: T1, ORP1 (Homo sapiens, UniProt Q9BXW6); assay: Fluorescence polarisation (FP) competition with NBD-cholesterol, ORP1; format: binding; details: single dose, Dose = 10 µM
T1 construct: ORP1(534-950); host or cells: E. coli BL21(DE3)
T1 sequence (Q9BXW6 534-950): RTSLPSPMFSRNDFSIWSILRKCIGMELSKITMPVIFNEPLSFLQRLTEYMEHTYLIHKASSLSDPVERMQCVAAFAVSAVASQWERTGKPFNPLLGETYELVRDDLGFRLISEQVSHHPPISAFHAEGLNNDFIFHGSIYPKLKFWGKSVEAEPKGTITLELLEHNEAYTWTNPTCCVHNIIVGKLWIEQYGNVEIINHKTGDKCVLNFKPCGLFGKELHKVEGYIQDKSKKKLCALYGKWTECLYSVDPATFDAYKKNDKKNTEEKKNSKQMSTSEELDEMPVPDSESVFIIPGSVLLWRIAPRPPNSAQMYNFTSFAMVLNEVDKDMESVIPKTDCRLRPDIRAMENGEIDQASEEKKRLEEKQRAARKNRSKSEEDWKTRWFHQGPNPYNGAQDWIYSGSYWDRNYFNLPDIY
Excerpt: (§1) Protein expression constructs
(§2) Human ASTER domains of Aster-A(359-547), -B(364-552) and -C(318-504) were subcloned into a pGEX-6p-2rbs vector, thus introducing the cloning artifact ‘GPLGS’.3 The pGEX-6P-1-GST-OSBP(377- […]
(§3) a gift from James H. Hurley (University of California).4 The pHIS_2His6_Thrombin_STARD4(2-205;C75S) plasmid was a gift from Young Jun Im (Chonnam National University).5 STARD5A was a gift from Nicola Burgess-Brown (Addgene plasmid #42392; http://n2t.net/addgene:42392; […]
(§4) Protein expression and purification […]
(§5) vectors including an N-terminal PreScission-cleavable glutathione S-transferase (GST)-tag were expressed in Escherichia coli (E. coli) OverExpress C41 in Terrific Broth (TB) medium for 16 h at 18 °C after the induction with 0.1 mM isopropyl β-D-1-thiogalactopyranoside (IPTG). Cells were harvested at 3500 × g for 15 minutes and lysed by sonication in buffer containing 50 mM HEPES pH 7.5, 300 mM NaCl, 10 %v/v glycerol, 5 mM dithiothreitol (DTT), 0.1 %v/v Triton X-100 and protease inhibitor mix HP plus (Serva). The lysate was purified by affinity chromatography on a GSTrap FF column (Cytiva) using an ÄKTA Start (Cytiva) in buffer containing 50 mM HEPES pH 7.5, 300 mM NaCl, 10 %v/v glycerol, 5 mM DTT and 0.01 %v/v Triton X-100. The GST-tag was cleaved overnight on the column at 4 °C. The Aster sterol binding domains were further purified by size-exclusion chromatography (SEC) on a HiLoad 16/600 Superdex 75 pg (Cytiva) in buffer containing 20 mM HEPES pH 7.5, 300 mM NaCl, 10 %v/v […]
(§6) STARD5(6-213) harboring an N-terminal His6-Tag were expressed in E. coli BL21(DE3) in Luria-Bertani Broth (LB) medium for approximately 16 h at 18 °C after induction with 0.15 mM IPTG. Cells were harvested at 3500 × g for 15 minutes and lysed by sonication in buffer containing 50 mM HEPES pH 7.5, 150 mM NaCl, 5 %v/v glycerol, 5 mM DTT, 0.1 %v/v Triton X -100 and ethylenediaminetetraacetic acid (EDTA)-free protease inhibitor cocktail (Sigma-Aldrich). The cleared lysate was purified by affinity chromatography on a Ni-NTA Superflow Cartridge (Qiagen) using an ÄKTA Start (Cytiva) in buffer containing 50 mM HEPES pH 7.5, 150 mM NaCl, 5 %v/v glycerol, 5 mM DTT. START domains were eluted by using elution buffer containing 50 mM HEPES pH 7.5, 150 mM NaCl, 5 %v/v glycerol, 5 mM DTT and 500 mM imidazole. Proteins were further purified by SEC on a HiLoad 16/600 Superdex 75 pg (Cytiva) in buffer containing 20 mM HEPES pH 7.5, 150 mM NaCl, 5 %v/v glycerol and 2 mM DTT.
(§7) The ORP domain of human OSBP(377-807) in the pGEX-6p-1 vector with an N-terminal PreScission-cleavable GST-tag was expressed in E. coli OverExpress C41 in LB medium for 16 h at 18 °C after induction with 0.1 mM IPTG. Cells were harvested at 3500 × g for 15 minutes and lysed by sonication in buffer containing 20 mM HEPES pH 7.5, 300 mM NaCl, 10 %v/v glycerol, 5 mM DTT, 0.1 %v/v Triton X-100 and EDTA-free protease inhibitor cocktail (Sigma-Aldrich). The cleared lysate was purified by affinity chromatography on a GSTrap HF column (Cytiva) using an ÄKTA Start (Cytiva) in buffer containing 20 mM HEPES pH 7.5, 300 mM NaCl, 10 %v/v glycerol, 5 mM DTT. OSBP(377 -807) was eluted by using elution buffer containing 20 mM HEPES pH 7.5, 300 mM NaCl, 10 %v/v glycerol, 5 mM DTT and 10 mM reduced glutathione. Proteins were further purified by SEC on a HiLoad 16/600 Superdex 75 pg (Cytiva) using an ÄKTA Explorer (Cytiva) in buffer containing 20 mM HEPES pH 7.5, 150 mM NaCl, 10 %v/v glycerol and 2 mM DTT.
(§8) The ORP domains of human ORP1(534-950) in pET24b(+) and ORP2(49-480) in the pET24b(+) vector including an N-terminal His6-Tag were expressed in E. coli BL21(DE3) in TB medium for approximately 16 h at 18 °C after induction with 0.1 mM IPTG. Cells were collected at 3500 × g for 15 minutes and lysed by sonification in buffer containing 10 mM Tris-HCl pH 8, 300 mM NaCl, 5 % glycerol, 2 mM DTT, 0.1 % Triton X-100 and EDTA-free protease inhibitor cocktail (Sigma-Aldrich). The cleared […]

Aster-A = molecular target: T2, Aster-A (Homo sapiens, UniProt Q96CP6); assay: Fluorescence polarisation (FP) competition with NBD-cholesterol, Aster-A; format: binding; details: single dose, Dose = 10 µM
T2 construct: Aster-A(359-547); GST (PreScission-cleavable) (N, cleaved yes); made in house; host or cells: E. coli OverExpress C41
T2 sequence (Q96CP6 359-547): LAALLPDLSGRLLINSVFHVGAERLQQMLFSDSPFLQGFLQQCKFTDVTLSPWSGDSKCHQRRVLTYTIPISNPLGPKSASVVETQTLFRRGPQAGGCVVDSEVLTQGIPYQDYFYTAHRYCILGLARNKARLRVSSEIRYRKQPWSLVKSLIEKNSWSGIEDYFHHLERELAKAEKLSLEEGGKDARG
Excerpt: as §1, §2, §3, §4, §5, §6, §7, §8

| SMILES | ORP1 (FP) inhibition (ORP1) [%] | Aster-A (FP) inhibition (Aster-A) [%] | inhibition at 10 µM (ORP1) [%] | inhibition at 10 µM (Aster-A) [%] |
| --- | --- | --- | --- | --- |
| C[C@]12CC[C@@H](O)C[C@H]1CCc1c2[nH]c2ccc(F)cc12 [Compound 10d] | 28.3 | -8 |  |  |
| Cc1ccc2[nH]c3c(c2c1)CC[C@@H]1C[C@H](O)CC[C@]31C [Compound 10e] |  |  | 27.5 | -4 |
| COc1ccc2[nH]c3c(c2c1)CC[C@@H]1C[C@H](O)CC[C@]31C [Compound 10f] |  |  | 11.7 | 0 |
| CC12CCC(O)CC1CCc1c2[nH]c2ccc(C(F)(F)F)cc12 (stereo not drawn) [Compound 10g] |  |  | 39.2 | -8 |
| C[C@]12CC[C@@H](O)C[C@H]1CCc1c2[nH]c2ccc(I)cc12 [Compound 10h] | 35.8 | 7 |  |  |
| C[C@]12CC[C@@H](O)C[C@H]1CCc1c2[nH]c2c(F)cc(Cl)cc12 [Compound 10i] |  |  | 14.2 | -8 |
| Cc1cc(C)c2c3c([nH]c2c1)[C@@]1(C)CC[C@@H](O)C[C@H]1CC3 [Compound 10j] |  |  | 11.7 | -2 |
| CCOC(=O)c1ccc2[nH]c3c(c2c1)CC[C@@H]1C[C@H](O)CC[C@]31C [Compound 10k] | 10.0 | 1 |  |  |
| C[C@]12CC[C@@H](O)C[C@H]1CCC(=O)c1ccccc1NC2=O [Compound 11a] | -2.5 | -1 |  |  |
| C[C@]12CC[C@@H](O)C[C@H]1CCC(=O)c1cc(Br)ccc1NC2=O [Compound 11b] |  |  | -1.7 | 1 |
| Cc1ccc2c(c1)C(=O)CC[C@@H]1C[C@H](O)CC[C@]1(C)C(=O)N2 [Compound 11c] |  |  | -8.3 | -4 |
| COc1ccc2c(c1)C(=O)CC[C@@H]1C[C@H](O)CC[C@]1(C)C(=O)N2 [Compound 11d] |  |  | -3.3 | -1 |
| C[C@]12CC[C@@H](O)C[C@H]1CCC(=O)c1cc(C(F)(F)F)ccc1NC2=O [Compound 11e] |  |  | -3.3 | -2 |
| C[C@]12CC[C@@H](O)C[C@H]1CCC(=O)c1cc(Cl)cc(F)c1NC2=O [Compound 11f] | -6.7 | -1 |  |  |
| Cc1cc(C)c2c(c1)NC(=O)[C@@]1(C)CC[C@@H](O)C[C@H]1CCC2=O [Compound 11g] |  |  | -6.7 | 0 |
